The record followed here is patent US20090172831A1, “Methods for the production of plants resistant to HPPD herbicides” (Syngenta Limited, priority 2000, published 2009).

Values joined by “and” are separate entries in the source; they are usually repeats but may differ in a detail not shown here. Equal values may be shown once.

Assay [1] addresses T1, Arabidopsis HPPD (Arabidopsis thaliana, UniProt P93836).
T1 construct: made in house; host or cells: E. coli BL21 (DE3) codon+ RP
T1 sequence (P93836 1-445): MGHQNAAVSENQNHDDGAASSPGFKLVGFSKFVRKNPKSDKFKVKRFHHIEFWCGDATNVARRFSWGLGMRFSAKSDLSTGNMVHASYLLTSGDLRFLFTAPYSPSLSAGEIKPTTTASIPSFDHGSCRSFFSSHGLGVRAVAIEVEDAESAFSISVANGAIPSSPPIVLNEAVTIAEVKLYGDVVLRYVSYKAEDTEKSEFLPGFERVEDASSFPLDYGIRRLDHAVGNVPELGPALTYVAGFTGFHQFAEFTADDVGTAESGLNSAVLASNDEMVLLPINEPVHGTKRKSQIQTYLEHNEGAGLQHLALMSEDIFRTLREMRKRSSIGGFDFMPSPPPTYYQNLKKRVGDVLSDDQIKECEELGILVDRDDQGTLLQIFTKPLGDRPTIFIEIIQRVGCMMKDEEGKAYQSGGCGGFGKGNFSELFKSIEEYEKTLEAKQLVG
Put plainly: Inhibition of HPPD (E. coli extract) after pre-incubation with inhibitor. The format is biochemical. The settings on record: read-out: inhibition (relative to controls). As for the experimental part:
Qualitative measurements of the differences in Kd values in respect of different HPPD inhibitors are obtained by pre-incubating enzyme with inhibitor and, then, subsequently, measuring the % inhibition. For example HPPD is isolated from maize seedlings, part purified and assayed by similar methods to those described by Schulz et al 1993 (FEBS LETS. 318, 162-166) and by Secor (1994) in Plant Physiol. 106, 1429-1433. Assays are run for 30 minutes and started with addition of radiolabelled hydroxyphenylpyruvate (final concentration ˜0.1-0.2 mM) following a 20-30 min period over which inhibitor is pre-incubated with the part-purified enzyme.
Using the same assay method but using HPPD from Arabidopis (obtained from E. coli cells transformed to express the Arabidopsis HPPD and prepared as an E. coli extract similar to the methods described by Garcia et al in Plant Physiol (1999) 119, 1507-1516) the following levels of inhibition (relative to controls) are observed with the following doses of herbicide versus Arabidopsis HPPD.

Assay [2] concerns tobacco plants transformed to express wheat HPPD. In words: Tolerance of tobacco transformed with wheat HPPD to herbicides. The format is in vivo. To be noted: MS agar; a number of PCR+ve transformants (0.1), a sub-set (>0.2); listed as mesotrione.
Excerpt: These constructs were all transformed into Agrobacterium tumefaciens strain LBA4404, which in turn was used to transform tobacco, using methodology described previously.
Explants (i.e. a leaf plus short segment of stem containing the auxiliary bud) are placed into MS agar (+3% sucrose) containing various concentrations of mesotrione (see above) from 0.02 to 2 ppm.
Assay [3] concerns dicot plants. In words: Herbicidal activity versus dicot plants averaged over 6 or more species. The settings on record: in vivo. An excerpt:
Activity versus dicot plants refers here to herbicidal activity averaged over a range of 6 or more of those dicot weed and crop species usually used in screens used for compound discovery in the agrochemical community. Herbicidal activity versus dicot plants also refers here to that activity which is due to the inhibitor per se rather than due to some, potentially more herbicidal, metabolite of it which may be formed in planta or otherwise.

Assay [4] concerns the target Wheat HPPD (Triticum aestivum, UniProt A0A3B6NLC6). Put plainly: kon from HPLC enzyme assay (progressive inhibition / timed pre-reaction). In kind it is biochemical. The settings on record: for observed first order decay rate constant: 100 μM HPP (no inhibitor: 0.016).
Description: Assay buffer is 105 μM (or as appropriate) hydroxyphenylpyruvate (HPP) is freshly made up in 50 mM Bis-Tris-propane buffer at pH 7.0. Dilution buffer is 50 mM Bis-Tris-propane buffer at pH 7.0 containing 25 mM sodium ascorbate and 3.8 mg/l of bovine catalase (Sigma C3155˜50,000 units/mg). HPPD enzyme, freshly unfrozen from storage is kept at ice temperature and diluted, also at ice temperature, to an appropriate concentration in dilution buffer (typically, 2-8 μM) before use. Assays are started by addition of 5 μl of diluted enzyme to 100 μl of assay buffer at 25 C in an eppendorf centrifuge and stopped, at a series of times between 0 and 90 s by addition of 20 μl of 25% perchloric acid and whirlimixing. 80-100 μl of the contents of each eppendorf tube is transferred to an HPLC vial prior to separation by Reverse Phase HPLC. For HPLC, 40 μl is loaded at 1.5 ml/min onto an Aqua C18 5μ 75×4.6 mm column (silica is endcapped) equilibrated with 5.5% acetonitrile, 0.1% trifluoroacetic acid (buffer A) using an HP 1100 HPLC system. The column is eluted, also at 1.5 ml/min, using a 2 minute wash with buffer A, followed by a 2 min wash with a 30/70 mixture of buffer A/100% acetonitrile followed by a further 3.5 minute wash with buffer A (in between uses the column is stored in 65% acetonitrile/water). The elution of HGA (homogentisic acid) and HPP(hydroxyphenylpyruvate) is monitored using a UV flow cell and quantitated via integration of peak absorbance at 292 nm. HGA elutes at around 2 minutes and HPP elutes later. A standard set of concentrations of HGA are used to provide a standard curve in order to calibrate the UV absorbance of the HGA peak versus HGA concentration.
In FIG. 3 assays containing 100 μM HPP substrate were started with addition of wheat HPPD to a final concentration of ˜19 nM and stopped at the times indicated.
In a more direct assay-based method for measuring kon values, test HPPD enzyme is reacted with inhibitor for a range of times and then the inhibition reaction is effectively stopped by addition of a high concentration of the (competitive) substrate HPP. […]

Chain of Wheat HPPD (A0A3B6NLC6 entry or part of it): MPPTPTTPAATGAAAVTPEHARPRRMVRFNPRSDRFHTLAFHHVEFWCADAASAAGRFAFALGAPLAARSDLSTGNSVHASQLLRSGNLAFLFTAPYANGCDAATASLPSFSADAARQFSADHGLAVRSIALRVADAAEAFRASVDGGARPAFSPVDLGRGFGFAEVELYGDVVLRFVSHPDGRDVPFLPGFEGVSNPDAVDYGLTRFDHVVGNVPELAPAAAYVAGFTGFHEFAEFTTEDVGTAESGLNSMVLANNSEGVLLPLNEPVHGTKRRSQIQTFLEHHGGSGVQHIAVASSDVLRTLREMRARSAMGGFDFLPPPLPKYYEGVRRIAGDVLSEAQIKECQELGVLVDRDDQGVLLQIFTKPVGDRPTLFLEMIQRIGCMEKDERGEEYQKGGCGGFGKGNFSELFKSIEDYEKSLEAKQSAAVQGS

On to `CS(=O)(=O)c1ccc(C(=O)C2C(=O)CCCC2=O)c([N+](=O)[O-])c1` [Structure I, 2-(Nitro-4-methanesulphonylbenzoyl)-cyclohexane-1,3-dione, reference compound], for which the inhibition (in general, the change of the read-out against control, counted positive when it falls) at 0.001 µM in assay [1] (1 nM) stood at 42%. The inhibition at 0.01 µM in assay [1] (10 nM) was determined as 95%. Besides, in assay [1] (100 nM), the inhibition at 0.1 µM was found to be 100%. Further, in assay [1] (1000 nM), the inhibition at 1 µM was 100%. For the same compound, the “concentration tolerated with no indication of bleaching / plants looking normal” value in assay [2] is 0.1 ppm and > 0.2 ppm.
On to `Cc1nc(C(F)(F)F)ccc1C(=O)C1C(=O)C2CCC(C2)C1=O` (stereo not drawn) [Structure II], for which the “herbicidal activity versus dicot plants relative to mesotrione” value in assay [3] was “at least a quarter of the herbicidal activity of mesotrione”. For the same compound, the kon – broadly, the rate constant with which the complex forms – in assay [4] was in the range of 48000 to 57200 M⁻¹ s⁻¹. Further, the “observed first order decay rate constant” value in assay [4] (2.5 μM inhibitor) was found to be 0.029 s⁻¹; in assay [4] (10 μM inhibitor) it was 0.06 s⁻¹.
